From patent US20260356819A1, “OXOISOINDOLINYL-SUBSTITUTED […] DERIVATIVE AND USE THEREOF” (GLUETACS THERAPEUTICS (SHANGHAI) CO., LTD., priority 2023, published 2026)

Tests used:
Assay type in all cases: cell-based
Conditions in all cases: compounds at 50 nM and 500 nM
CK1α = biological target: T1, CK1α (Homo sapiens, UniProt P48729+Q96SW2); experiment: Western blot degradation of CK1α in hPBMCs (24 h)
T1 construct: The supernatant was aspirated as the extracted total cell protein; endogenous in cells; host or cells: human peripheral blood mononuclear cells (hPBMCs)
T1 sequence (P48729 whole entry): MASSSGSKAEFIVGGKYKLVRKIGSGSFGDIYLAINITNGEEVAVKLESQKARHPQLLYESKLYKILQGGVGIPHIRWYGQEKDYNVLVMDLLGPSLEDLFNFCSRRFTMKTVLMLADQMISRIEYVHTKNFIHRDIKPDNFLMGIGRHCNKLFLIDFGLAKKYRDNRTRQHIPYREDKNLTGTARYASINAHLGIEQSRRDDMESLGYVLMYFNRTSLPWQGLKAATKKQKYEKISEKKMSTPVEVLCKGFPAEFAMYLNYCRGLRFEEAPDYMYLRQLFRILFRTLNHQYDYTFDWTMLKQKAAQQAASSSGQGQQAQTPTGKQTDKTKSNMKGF
T1 sequence (Q96SW2 whole entry): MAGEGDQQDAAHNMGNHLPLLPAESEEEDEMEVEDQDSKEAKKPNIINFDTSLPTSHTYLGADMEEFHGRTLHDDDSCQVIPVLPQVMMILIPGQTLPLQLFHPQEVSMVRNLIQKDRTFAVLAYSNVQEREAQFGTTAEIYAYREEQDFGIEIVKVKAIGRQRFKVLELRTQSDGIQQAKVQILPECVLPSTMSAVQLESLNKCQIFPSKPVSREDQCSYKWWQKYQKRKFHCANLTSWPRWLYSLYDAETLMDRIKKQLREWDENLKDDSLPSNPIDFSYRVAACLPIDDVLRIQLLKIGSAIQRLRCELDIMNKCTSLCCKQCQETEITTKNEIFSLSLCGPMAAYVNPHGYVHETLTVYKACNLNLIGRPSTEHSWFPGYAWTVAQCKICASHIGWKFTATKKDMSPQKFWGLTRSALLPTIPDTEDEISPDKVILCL
T1 sequence (Q16531 whole entry partner): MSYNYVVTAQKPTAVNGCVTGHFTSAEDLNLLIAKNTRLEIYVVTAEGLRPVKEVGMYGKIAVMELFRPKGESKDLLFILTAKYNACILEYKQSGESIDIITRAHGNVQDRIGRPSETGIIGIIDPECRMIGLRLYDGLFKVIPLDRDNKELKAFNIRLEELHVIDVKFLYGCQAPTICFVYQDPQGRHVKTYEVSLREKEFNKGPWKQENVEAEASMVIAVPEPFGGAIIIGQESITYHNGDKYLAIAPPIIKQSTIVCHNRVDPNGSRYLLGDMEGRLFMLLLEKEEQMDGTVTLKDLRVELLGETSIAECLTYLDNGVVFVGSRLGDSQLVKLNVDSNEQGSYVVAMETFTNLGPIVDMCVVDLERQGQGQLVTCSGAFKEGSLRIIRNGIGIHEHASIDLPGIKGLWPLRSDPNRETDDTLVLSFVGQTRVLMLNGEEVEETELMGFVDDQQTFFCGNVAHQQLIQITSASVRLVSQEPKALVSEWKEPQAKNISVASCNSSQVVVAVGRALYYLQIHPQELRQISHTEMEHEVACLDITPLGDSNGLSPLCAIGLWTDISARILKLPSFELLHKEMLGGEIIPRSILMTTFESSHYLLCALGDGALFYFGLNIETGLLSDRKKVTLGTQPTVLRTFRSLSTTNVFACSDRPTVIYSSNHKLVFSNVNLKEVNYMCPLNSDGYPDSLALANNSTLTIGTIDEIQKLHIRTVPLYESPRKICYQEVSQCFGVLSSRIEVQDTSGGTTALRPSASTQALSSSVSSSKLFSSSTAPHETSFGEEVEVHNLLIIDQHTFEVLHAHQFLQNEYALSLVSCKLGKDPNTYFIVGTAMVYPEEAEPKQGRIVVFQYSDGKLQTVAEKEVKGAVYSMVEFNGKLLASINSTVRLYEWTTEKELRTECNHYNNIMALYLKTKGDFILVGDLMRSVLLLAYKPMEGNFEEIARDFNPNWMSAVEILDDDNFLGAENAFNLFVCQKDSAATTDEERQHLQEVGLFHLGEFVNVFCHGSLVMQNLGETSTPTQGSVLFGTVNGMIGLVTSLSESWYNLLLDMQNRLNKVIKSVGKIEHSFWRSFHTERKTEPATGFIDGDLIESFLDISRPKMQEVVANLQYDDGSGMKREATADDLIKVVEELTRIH
In short: (§1)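 Thawed human PBMCs, 1×10^6 cells/mL; cpd 50 nM or 500 nM, 24 h; RIPA lysis, BCA, SDS-PAGE, NC transfer, immunoblot. Readout: grayscale/internal control → % remaining; degradation = 1 − remaining.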

WEE1 = biological target: T2, WEE1 (Homo sapiens, UniProt P30291+Q96SW2); experiment: Western blot degradation of WEE1 in hPBMCs (24 h)
T2 construct: The supernatant was aspirated as the extracted total cell protein; endogenous in cells; host or cells: human peripheral blood mononuclear cells (hPBMCs)
T2 sequence (P30291 whole entry): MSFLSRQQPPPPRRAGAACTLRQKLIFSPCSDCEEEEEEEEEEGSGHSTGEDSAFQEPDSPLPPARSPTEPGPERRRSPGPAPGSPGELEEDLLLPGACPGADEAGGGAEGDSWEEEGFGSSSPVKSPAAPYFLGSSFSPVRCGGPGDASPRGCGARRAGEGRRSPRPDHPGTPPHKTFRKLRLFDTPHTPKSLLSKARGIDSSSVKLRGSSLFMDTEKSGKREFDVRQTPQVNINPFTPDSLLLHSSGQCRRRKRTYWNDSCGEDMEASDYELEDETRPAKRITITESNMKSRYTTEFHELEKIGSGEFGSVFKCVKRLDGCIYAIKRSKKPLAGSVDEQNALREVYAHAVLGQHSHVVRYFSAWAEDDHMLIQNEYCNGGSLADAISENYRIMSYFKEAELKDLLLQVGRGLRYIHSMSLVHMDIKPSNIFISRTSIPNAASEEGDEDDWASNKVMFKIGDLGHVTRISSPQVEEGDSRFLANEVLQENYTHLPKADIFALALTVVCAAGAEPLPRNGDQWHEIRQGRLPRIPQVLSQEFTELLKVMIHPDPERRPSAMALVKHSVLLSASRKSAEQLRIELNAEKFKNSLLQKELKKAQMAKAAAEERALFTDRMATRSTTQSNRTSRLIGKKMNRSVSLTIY
T2 sequence (Q96SW2 whole entry): as the sequence (Q96SW2 whole entry) above
T2 sequence (Q16531 whole entry partner): as the sequence (Q16531 whole entry partner) above
In short: as §1

GSPT1 = biological target: T3, GSPT1 (Homo sapiens, UniProt P15170+Q96SW2); experiment: Western blot degradation of GSPT1 in hPBMCs (24 h)
T3 construct: The supernatant was aspirated as the extracted total cell protein; endogenous in cells; host or cells: human peripheral blood mononuclear cells (hPBMCs)
T3 sequence (P15170 whole entry): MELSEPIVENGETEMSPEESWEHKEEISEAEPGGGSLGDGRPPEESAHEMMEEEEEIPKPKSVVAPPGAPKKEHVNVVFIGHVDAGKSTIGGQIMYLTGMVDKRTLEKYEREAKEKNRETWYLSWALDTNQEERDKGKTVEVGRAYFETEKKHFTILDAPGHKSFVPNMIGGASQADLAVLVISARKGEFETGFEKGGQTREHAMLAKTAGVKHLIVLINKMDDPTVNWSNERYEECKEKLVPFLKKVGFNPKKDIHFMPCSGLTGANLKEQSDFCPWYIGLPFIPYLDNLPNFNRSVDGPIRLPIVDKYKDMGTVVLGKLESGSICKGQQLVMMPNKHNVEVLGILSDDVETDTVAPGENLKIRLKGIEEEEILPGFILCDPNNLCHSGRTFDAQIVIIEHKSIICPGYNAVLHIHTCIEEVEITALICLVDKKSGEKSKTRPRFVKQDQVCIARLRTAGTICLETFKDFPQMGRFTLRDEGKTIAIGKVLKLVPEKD
T3 sequence (Q96SW2 whole entry): as the sequence (Q96SW2 whole entry) above
T3 sequence (Q16531 whole entry partner): as the sequence (Q16531 whole entry partner) above
In short: as §1

IKZF1 = biological target: T4, IKZF1 (Homo sapiens, UniProt Q13422+Q96SW2); experiment: Western blot degradation of IKZF1 in hPBMCs (24 h)
T4 construct: The supernatant was aspirated as the extracted total cell protein; endogenous in cells; host or cells: human peripheral blood mononuclear cells (hPBMCs)
T4 sequence (Q13422 whole entry): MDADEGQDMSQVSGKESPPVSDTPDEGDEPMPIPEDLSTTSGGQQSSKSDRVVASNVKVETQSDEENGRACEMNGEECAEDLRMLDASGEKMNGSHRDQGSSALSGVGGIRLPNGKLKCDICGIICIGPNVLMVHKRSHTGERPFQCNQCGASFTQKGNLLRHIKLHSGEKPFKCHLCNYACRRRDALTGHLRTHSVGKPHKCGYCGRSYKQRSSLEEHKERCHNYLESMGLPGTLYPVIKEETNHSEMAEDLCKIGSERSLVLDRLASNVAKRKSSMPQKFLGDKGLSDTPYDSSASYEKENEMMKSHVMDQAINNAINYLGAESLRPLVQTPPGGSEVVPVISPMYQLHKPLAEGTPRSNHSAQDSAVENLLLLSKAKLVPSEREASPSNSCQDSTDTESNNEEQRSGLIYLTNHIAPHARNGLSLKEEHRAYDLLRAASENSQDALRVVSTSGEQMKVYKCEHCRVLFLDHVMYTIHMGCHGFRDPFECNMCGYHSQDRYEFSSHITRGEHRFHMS
T4 sequence (Q96SW2 whole entry): as the sequence (Q96SW2 whole entry) above
T4 sequence (Q16531 whole entry partner): as the sequence (Q16531 whole entry partner) above
In short: as §1

IKZF2 = biological target: T5, IKZF2 (Homo sapiens, UniProt Q96SW2+Q9UKS7); experiment: Western blot degradation of IKZF2 in hPBMCs (24 h)
T5 construct: The supernatant was aspirated as the extracted total cell protein; endogenous in cells; host or cells: human peripheral blood mononuclear cells (hPBMCs)
In short: as §1

IKZF3 = biological target: T6, IKZF3 (Homo sapiens, UniProt Q96SW2+Q9UKT9); experiment: Western blot degradation of IKZF3 in hPBMCs (24 h)
T6 construct: The supernatant was aspirated as the extracted total cell protein; endogenous in cells; host or cells: human peripheral blood mononuclear cells (hPBMCs)
T6 sequence (Q9UKT9 whole entry): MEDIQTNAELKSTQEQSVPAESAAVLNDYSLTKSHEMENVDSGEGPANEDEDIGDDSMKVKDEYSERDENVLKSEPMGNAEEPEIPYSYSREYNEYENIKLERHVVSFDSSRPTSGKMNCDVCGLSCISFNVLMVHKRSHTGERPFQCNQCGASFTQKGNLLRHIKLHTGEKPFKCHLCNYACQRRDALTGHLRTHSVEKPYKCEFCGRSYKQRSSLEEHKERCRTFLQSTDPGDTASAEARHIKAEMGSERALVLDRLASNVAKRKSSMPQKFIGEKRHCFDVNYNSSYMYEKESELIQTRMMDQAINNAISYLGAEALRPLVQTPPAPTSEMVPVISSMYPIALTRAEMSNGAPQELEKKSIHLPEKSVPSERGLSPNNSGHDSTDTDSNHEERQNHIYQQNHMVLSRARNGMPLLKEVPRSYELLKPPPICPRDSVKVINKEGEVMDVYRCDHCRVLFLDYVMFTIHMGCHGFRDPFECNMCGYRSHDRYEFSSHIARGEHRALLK
T6 sequence (Q96SW2 whole entry): as the sequence (Q96SW2 whole entry) above
T6 sequence (Q16531 whole entry partner): as the sequence (Q16531 whole entry partner) above
In short: as §1

## O=C1CCN(N2C(=O)c3ccc(CN4CCN(c5ccc(Cl)cn5)CC4)cc3C2=O)C(=O)N1 [GT-05350, 5-((4-(5-chloropyridin-2-yl)piperazin-1-yl)methyl)-2-(2,4-dioxotetrahydropyrimidin-1(2H)-yl)isoindoline-1,3-dione]
CK1α
  CK1α substrate protein remaining %: B (80%< substrate protein remaining % ≤100%)
WEE1
  WEE1 substrate protein remaining %: B (80%< substrate protein remaining % ≤100%)
GSPT1
  GSPT1 substrate protein remaining %: A (0% ≤ substrate protein remaining % ≤80%)
IKZF1
  IKZF1 substrate protein remaining %: B (80%< substrate protein remaining % ≤100%)
IKZF2
  IKZF2 substrate protein remaining %: B (80%< substrate protein remaining % ≤100%)
IKZF3
  IKZF3 substrate protein remaining %: B (80%< substrate protein remaining % ≤100%)

## Cc1cccc(N2CCN(Cc3ccc4c(c3)C(=O)N(N3CCC(=O)NC3=O)C4=O)CC2)n1 [GT-05352, 2-(2,4-dioxotetrahydropyrimidin-1(2H)-yl)-5-((4-(6-methylpyridin-2-yl)piperazin-1-yl)methyl)isoindoline-1,3-dione]
CK1α
  CK1α substrate protein remaining %: B (80%< substrate protein remaining % ≤100%)
WEE1
  WEE1 substrate protein remaining %: B (80%< substrate protein remaining % ≤100%)
GSPT1
  GSPT1 substrate protein remaining %: A (0% ≤ substrate protein remaining % ≤80%)
IKZF1
  IKZF1 substrate protein remaining %: B (80%< substrate protein remaining % ≤100%)
IKZF2
  IKZF2 substrate protein remaining %: A (0% ≤ substrate protein remaining % ≤80%)
IKZF3
  IKZF3 substrate protein remaining %: B (80%< substrate protein remaining % ≤100%)

## O=C1CCN(N2Cc3cc(CN4CCN(c5nccc(Cl)c5F)CC4)ccc3C2=O)C(=O)N1 [GT-05358, 1-(5-((4-(4-chloro-3-fluoropyridin-2-yl)piperazin-1-yl)methyl)-1-oxoisoindolin-2-yl)dihydropyrimidine-2,4(1H,3H)-dione]
CK1α
  CK1α substrate protein remaining %: B (80%< substrate protein remaining % ≤100%)
WEE1
  WEE1 substrate protein remaining %: B (80%< substrate protein remaining % ≤100%)
GSPT1
  GSPT1 substrate protein remaining %: A (0% ≤ substrate protein remaining % ≤80%)
IKZF1
  IKZF1 substrate protein remaining %: B (80%< substrate protein remaining % ≤100%)
IKZF2
  IKZF2 substrate protein remaining %: B (80%< substrate protein remaining % ≤100%)
IKZF3
  IKZF3 substrate protein remaining %: B (80%< substrate protein remaining % ≤100%)

## O=C1CCN(N2Cc3cc(CN4CCN(c5ccc(Cl)nc5)CC4)ccc3C2=O)C(=O)N1 [GT-05435, 1-(5-((4-(6-chloropyridin-3-yl)piperazin-1-yl)methyl)-1-oxoisoindolin-2-yl)dihydropyrimidine-2,4(1H,3H)-dione]
CK1α
  CK1α substrate protein remaining %: B (80%< substrate protein remaining % ≤100%)
WEE1
  WEE1 substrate protein remaining %: A (0% ≤ substrate protein remaining % ≤80%)
GSPT1
  GSPT1 substrate protein remaining %: A (0% ≤ substrate protein remaining % ≤80%)
IKZF1
  IKZF1 substrate protein remaining %: B (80%< substrate protein remaining % ≤100%)
IKZF2
  IKZF2 substrate protein remaining %: B (80%< substrate protein remaining % ≤100%)
IKZF3
  IKZF3 substrate protein remaining %: B (80%< substrate protein remaining % ≤100%)

## O=C1CCN(N2Cc3cc(CN4CCN(c5cncc(Cl)c5Cl)CC4)ccc3C2=O)C(=O)N1 [GT-05436, 1-(5-((4-(4,5-dichloropyridin-3-yl)piperazin-1-yl)methyl)-1-oxoisoindolin-2-yl)dihydropyrimidine-2,4(1H,3H)-dione]
CK1α
  CK1α substrate protein remaining %: B (80%< substrate protein remaining % ≤100%)
WEE1
  WEE1 substrate protein remaining %: A (0% ≤ substrate protein remaining % ≤80%)
GSPT1
  GSPT1 substrate protein remaining %: A (0% ≤ substrate protein remaining % ≤80%)
IKZF1
  IKZF1 substrate protein remaining %: B (80%< substrate protein remaining % ≤100%)
IKZF2
  IKZF2 substrate protein remaining %: B (80%< substrate protein remaining % ≤100%)
IKZF3
  IKZF3 substrate protein remaining %: B (80%< substrate protein remaining % ≤100%)

## O=C1CCN(N2Cc3cc(CN4CCN(c5ccncc5)CC4)ccc3C2=O)C(=O)N1 [GT-05437, 1-(1-oxo-5-((4-(pyridin-4-yl)piperazin-1-yl)methyl)isoindolin-2-yl)dihydropyrimidine-2,4(1H,3H)-dione]
CK1α
  CK1α substrate protein remaining %: B (80%< substrate protein remaining % ≤100%)
WEE1
  WEE1 substrate protein remaining %: B (80%< substrate protein remaining % ≤100%)
GSPT1
  GSPT1 substrate protein remaining %: A (0% ≤ substrate protein remaining % ≤80%)
IKZF1
  IKZF1 substrate protein remaining %: B (80%< substrate protein remaining % ≤100%)
IKZF2
  IKZF2 substrate protein remaining %: B (80%< substrate protein remaining % ≤100%)
IKZF3
  IKZF3 substrate protein remaining %: B (80%< substrate protein remaining % ≤100%)

## Cc1cc(N2CCN(Cc3ccc4c(c3)CN(N3CCC(=O)NC3=O)C4=O)CC2)ccn1 [GT-05438, 1-(5-((4-(2-methylpyridin-4-yl)piperazin-1-yl)methyl)-1-oxoisoindolin-2-yl)dihydropyrimidine-2,4(1H,3H)-dione]
CK1α
  CK1α substrate protein remaining %: A (0% ≤ substrate protein remaining % ≤80%)
WEE1
  WEE1 substrate protein remaining %: A (0% ≤ substrate protein remaining % ≤80%)
GSPT1
  GSPT1 substrate protein remaining %: A (0% ≤ substrate protein remaining % ≤80%)
IKZF1
  IKZF1 substrate protein remaining %: A (0% ≤ substrate protein remaining % ≤80%)
IKZF2
  IKZF2 substrate protein remaining %: B (80%< substrate protein remaining % ≤100%)
IKZF3
  IKZF3 substrate protein remaining %: A (0% ≤ substrate protein remaining % ≤80%)

## O=C1CCN(N2Cc3cc(CN4CCN(c5ccncc5F)CC4)ccc3C2=O)C(=O)N1 [GT-05697, 1-(5-((4-(3-fluoropyridin-4-yl)piperazin-1-yl)methyl)-1-oxoisoindolin-2-yl)dihydropyrimidine-2,4(1H,3H)-dione]
CK1α
  CK1α substrate protein remaining %: B (80%< substrate protein remaining % ≤100%)
WEE1
  WEE1 substrate protein remaining %: A (0% ≤ substrate protein remaining % ≤80%)
GSPT1
  GSPT1 substrate protein remaining %: A (0% ≤ substrate protein remaining % ≤80%)
IKZF1
  IKZF1 substrate protein remaining %: B (80%< substrate protein remaining % ≤100%)
IKZF2
  IKZF2 substrate protein remaining %: B (80%< substrate protein remaining % ≤100%)
IKZF3
  IKZF3 substrate protein remaining %: B (80%< substrate protein remaining % ≤100%)

## O=C1CCN(N2Cc3cc(CN4CCN(C(c5ccccc5)c5cccnc5)CC4)ccc3C2=O)C(=O)N1 (stereo not drawn) [GT-06376, 1-(1-oxo-5-((4-(phenyl(pyridin-3-yl)methyl)piperazin-1-yl)methyl)isoindolin-2-yl)dihydropyrimidine-2,4(1H,3H)-dione]
CK1α
  CK1α substrate protein remaining %: B (80%< substrate protein remaining % ≤100%)
WEE1
  WEE1 substrate protein remaining %: A (0% ≤ substrate protein remaining % ≤80%)
GSPT1
  GSPT1 substrate protein remaining %: A (0% ≤ substrate protein remaining % ≤80%)
IKZF1
  IKZF1 substrate protein remaining %: B (80%< substrate protein remaining % ≤100%)
IKZF2
  IKZF2 substrate protein remaining %: A (0% ≤ substrate protein remaining % ≤80%)
IKZF3
  IKZF3 substrate protein remaining %: B (80%< substrate protein remaining % ≤100%)

## O=C1CCN(N2C(=O)c3ccc(CN4CCN(C(c5ccccc5)c5cccnc5)CC4)cc3C2=O)C(=O)N1 (stereo not drawn) [GT-06377, 2-(2,4-dioxotetrahydropyrimidin-1(2H)-yl)-5-((4-(phenyl(pyridin-3-yl)methyl)piperazin-1-yl)methyl)isoindoline-1,3-dione]
CK1α
  CK1α substrate protein remaining %: B (80%< substrate protein remaining % ≤100%)
WEE1
  WEE1 substrate protein remaining %: A (0% ≤ substrate protein remaining % ≤80%)
GSPT1
  GSPT1 substrate protein remaining %: B (80%< substrate protein remaining % ≤100%)
IKZF1
  IKZF1 substrate protein remaining %: B (80%< substrate protein remaining % ≤100%)
IKZF2
  IKZF2 substrate protein remaining %: A (0% ≤ substrate protein remaining % ≤80%)
IKZF3
  IKZF3 substrate protein remaining %: B (80%< substrate protein remaining % ≤100%)

## O=C1CCN(N2C(=O)c3ccc(CN4CCN(C(c5ccccc5)c5ccncc5)CC4)cc3C2=O)C(=O)N1 (stereo not drawn) [GT-06378, 2-(2,4-dioxotetrahydropyrimidin-1(2H)-yl)-5-((4-(phenyl(pyridin-4-yl)methyl)piperazin-1-yl)methyl)isoindoline-1,3-dione]
CK1α
  CK1α substrate protein remaining %: B (80%< substrate protein remaining % ≤100%)
WEE1
  WEE1 substrate protein remaining %: A (0% ≤ substrate protein remaining % ≤80%)
GSPT1
  GSPT1 substrate protein remaining %: B (80%< substrate protein remaining % ≤100%)
IKZF1
  IKZF1 substrate protein remaining %: B (80%< substrate protein remaining % ≤100%)
IKZF2
  IKZF2 substrate protein remaining %: A (0% ≤ substrate protein remaining % ≤80%)
IKZF3
  IKZF3 substrate protein remaining %: A (0% ≤ substrate protein remaining % ≤80%)
